Values joined by “and” are separate entries in the source; they are usually repeats but may differ in a detail not shown here. Equal entries are not always repeated. Each block holds one molecule with its values, some of them ahead of it.
System: PANC-1 complex spheroid growth, percent test/control
Assay: Anticancer human tumor PANC-1 cell line growth inhibition [Asc];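 further: spheroids exposed to agents for 7 days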;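 on viability, T/C: percent viability relative to DMSO vehicle wells taken as 100%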
Conditions: for viability, T/C: stronger effect = lower value
In short: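 Stromal components (HUVEC and hMSC) are co-assembled with the cancer cells into multicellular spheroids. Drugs are then added singly or paired, at concentrations falling by half-log increments from a clinically achievable maximum, capped at 10 microM without known Cmax.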

IC50 (curve of first compound, second compound 0.00949 µM): > 300 nM
IC50 (curve of first compound, second compound 0.03 µM): > 300 nM
IC50 (curve of first compound, second compound 0.0949 µM): > 300 nM
IC50 (curve of first compound, second compound 0.3 µM): > 300 nM
IC50 (curve of first compound, second compound 0.949 µM): > 300 nM
IC50 (curve of first compound, second compound 3 µM): > 300 nM
Structure (SMILES): NC(=O)C(=Cn1cnc(-c2cc(C(F)(F)F)cc(C(F)(F)F)c2)n1)c1cncnc1 + CCN1C(C(=O)NC23CCC(C(=O)O)(CC2)CC3)C(c2cccc(Cl)c2F)C2(C(=O)Nc3cc(Cl)ccc32)C12CCCCC2
viability, T/C (second compound 0.00949 µM, first compound 0.000949 µM): 101%
viability, T/C (second compound 0.00949 µM, first compound 0.003 µM): 90.1%
viability, T/C (second compound 0.00949 µM, first compound 0.00949 µM): 90%
viability, T/C (second compound 0.00949 µM, first compound 0.03 µM): 104%
viability, T/C (second compound 0.00949 µM, first compound 0.0949 µM): 114%
viability, T/C (second compound 0.00949 µM, first compound 0.3 µM): 92.2%
viability, T/C (second compound 0.03 µM, first compound 0.000949 µM): 95.6%
viability, T/C (second compound 0.03 µM, first compound 0.003 µM): 95.5%
viability, T/C (second compound 0.03 µM, first compound 0.00949 µM): 98.6%
viability, T/C (second compound 0.03 µM, first compound 0.03 µM): 91.3%
viability, T/C (second compound 0.03 µM, first compound 0.0949 µM): 115%
viability, T/C (second compound 0.03 µM, first compound 0.3 µM): 104%
viability, T/C (second compound 0.0949 µM, first compound 0.000949 µM): 89.6%
viability, T/C (second compound 0.0949 µM, first compound 0.003 µM): 101%
viability, T/C (second compound 0.0949 µM, first compound 0.00949 µM): 90.1%
viability, T/C (second compound 0.0949 µM, first compound 0.03 µM): 92.4%
viability, T/C (second compound 0.0949 µM, first compound 0.0949 µM): 117%
viability, T/C (second compound 0.0949 µM, first compound 0.3 µM): 99.5%
viability, T/C (second compound 0.3 µM, first compound 0.000949 µM): 100%
viability, T/C (second compound 0.3 µM, first compound 0.003 µM): 89.6%
viability, T/C (second compound 0.3 µM, first compound 0.00949 µM): 89.1%
viability, T/C (second compound 0.3 µM, first compound 0.03 µM): 103%
viability, T/C (second compound 0.3 µM, first compound 0.0949 µM): 117%
viability, T/C (second compound 0.3 µM, first compound 0.3 µM): 93.8%
viability, T/C (second compound 0.949 µM, first compound 0.000949 µM): 97.5%
viability, T/C (second compound 0.949 µM, first compound 0.003 µM): 100%
viability, T/C (second compound 0.949 µM, first compound 0.00949 µM): 105%
viability, T/C (second compound 0.949 µM, first compound 0.03 µM): 99.3%
viability, T/C (second compound 0.949 µM, first compound 0.0949 µM): 125%
viability, T/C (second compound 0.949 µM, first compound 0.3 µM): 97.7%
viability, T/C (second compound 3 µM, first compound 0.000949 µM): 120%
viability, T/C (second compound 3 µM, first compound 0.003 µM): 107%
viability, T/C (second compound 3 µM, first compound 0.00949 µM): 113%
viability, T/C (second compound 3 µM, first compound 0.03 µM): 112%
viability, T/C (second compound 3 µM, first compound 0.0949 µM): 121%
viability, T/C (second compound 3 µM, first compound 0.3 µM): 96.6%

IC50 (curve of first compound, second compound 0.00316 µM): > 3000 nM
IC50 (curve of first compound, second compound 0.01 µM): > 3000 nM
IC50 (curve of first compound, second compound 0.0316 µM): > 3000 nM
IC50 (curve of first compound, second compound 0.1 µM): > 3000 nM
IC50 (curve of first compound, second compound 0.316 µM): > 3000 nM
IC50 (curve of first compound, second compound 1 µM): > 3000 nM
Structure (SMILES): CCN1C(C(=O)NC23CCC(C(=O)O)(CC2)CC3)C(c2cccc(Cl)c2F)C2(C(=O)Nc3cc(Cl)ccc32)C12CCCCC2 (stereo unspecified) + CNC(C)C(=O)NC1CN(S(=O)(=O)c2cccc(S(=O)(=O)N3CCC4CCC(C(=O)NC(c5ccccc5)c5ccccc5)N4C(=O)C(NC(=O)C(C)NC)C3)c2)CCC2CCC(C(=O)NC(c3ccccc3)c3ccccc3)N2C1=O
viability, T/C (second compound 0.00316 µM, first compound 0.00949 µM): 103%
viability, T/C (second compound 0.00316 µM, first compound 0.03 µM): 97.6%
viability, T/C (second compound 0.00316 µM, first compound 0.0949 µM): 101%
viability, T/C (second compound 0.00316 µM, first compound 0.3 µM): 103%
viability, T/C (second compound 0.00316 µM, first compound 0.949 µM): 113%
viability, T/C (second compound 0.00316 µM, first compound 3 µM): 124%
viability, T/C (second compound 0.01 µM, first compound 0.00949 µM): 109%
viability, T/C (second compound 0.01 µM, first compound 0.03 µM): 92.5%
viability, T/C (second compound 0.01 µM, first compound 0.0949 µM): 98.2%
viability, T/C (second compound 0.01 µM, first compound 0.3 µM): 97.2%
viability, T/C (second compound 0.01 µM, first compound 0.949 µM): 106%
viability, T/C (second compound 0.01 µM, first compound 3 µM): 126%
viability, T/C (second compound 0.0316 µM, first compound 0.00949 µM): 97.2%
viability, T/C (second compound 0.0316 µM, first compound 0.03 µM): 99.6%
viability, T/C (second compound 0.0316 µM, first compound 0.0949 µM): 101%
viability, T/C (second compound 0.0316 µM, first compound 0.3 µM): 95.8%
viability, T/C (second compound 0.0316 µM, first compound 0.949 µM): 104%
viability, T/C (second compound 0.0316 µM, first compound 3 µM): 125%
viability, T/C (second compound 0.1 µM, first compound 0.00949 µM): 97.5%
viability, T/C (second compound 0.1 µM, first compound 0.03 µM): 99.3%
viability, T/C (second compound 0.1 µM, first compound 0.0949 µM): 96.7%
viability, T/C (second compound 0.1 µM, first compound 0.3 µM): 109%
viability, T/C (second compound 0.1 µM, first compound 0.949 µM): 105%
viability, T/C (second compound 0.1 µM, first compound 3 µM): 121%
viability, T/C (second compound 0.316 µM, first compound 0.00949 µM): 99.2%
viability, T/C (second compound 0.316 µM, first compound 0.03 µM): 102%
viability, T/C (second compound 0.316 µM, first compound 0.0949 µM): 106%
viability, T/C (second compound 0.316 µM, first compound 0.3 µM): 92.6%
viability, T/C (second compound 0.316 µM, first compound 0.949 µM): 103%
viability, T/C (second compound 0.316 µM, first compound 3 µM): 108%
viability, T/C (second compound 1 µM, first compound 0.00949 µM): 96.9%
viability, T/C (second compound 1 µM, first compound 0.03 µM): 103%
viability, T/C (second compound 1 µM, first compound 0.0949 µM): 98%
viability, T/C (second compound 1 µM, first compound 0.3 µM): 101%
viability, T/C (second compound 1 µM, first compound 0.949 µM): 116%
viability, T/C (second compound 1 µM, first compound 3 µM): 107%

IC50 (curve of compound): > 100 nM
Structure (SMILES): NC1CCC(NC2CC2c2ccccc2)CC1 (stereo unspecified)
viability, T/C (compound 0.000316 µM): 98.4% and 88.6% and 107%
viability, T/C (compound 0.001 µM): 100% and 93.4% and 91.5%
viability, T/C (compound 0.00316 µM): 100% and 110% and 93.7%
viability, T/C (compound 0.01 µM): 98.2% and 85.6% and 90.5%
viability, T/C (compound 0.0316 µM): 93.5% and 101% and 93.9%
viability, T/C (compound 0.1 µM): 107% and 91.3% and 97.6%
